In patent publication US20080306056A1, “PYRAZOLE-DERIVATIVES AS FACTOR Xa INHIBITORS” (SANOFI-AVENTIS DEUTSCHLAND GMBH, priority 2002, published 2008):

Target: T1, human factor Xa (Homo sapiens, UniProt P00742)
T1 construct: 25 μl human factor Xa (Enzyme Research Laboratories, Inc; South Bend, Ind.); purchased Enzyme Research Laboratories, Inc; South Bend, Ind
Test: Factor Xa assay (chromogenic, purified enzyme)
Type: biochemical
Conditions: inhibition constant for factor Xa; chromogenic substrate S-2765 140 μM, enzyme 0.5 nM, 25° C., pH 7.8; Ki=IC50/{1+(substrate concentration/Km)}; read-out: Ki(FXa)
From the text: The ability of the compound of formulae I, Ib and Ic to inhibit factor Xa or factor VIIa or other enzymes like thrombin, plasmin, or trypsin can be assessed by determining the concentration of the compound of the formulae I, Ib and Ic that inhibits enzyme activity by 50%, i.e. the IC50 value, which was related to the inhibition constant Ki. Purified enzymes were used in chromogenic assays. The concentration of inhibitor that causes a 50% decrease in the rate of substrate hydrolysis was determined by linear regression after plotting the relative rates of hydrolysis (compared to the uninhibited control) versus the log of the concentration of the compound of formulae I, Ib and Ic. For calculating the inhibition constant Ki, the IC50 value was corrected for competition with substrate using the formula wherein Km is the Michaelis-Menten constant (Chen and Prusoff, Biochem.
Ki=IC50/{1+(substrate concentration/Km)}
Pharmacol. 22 (1973) 3099-3108; I. H. Segal, Enzyme Kinetics, 1975, John Wiley & Sons, New York, 100-125; which were incorporated herein by reference).
The IC50 was determined by combining in appropriate wells of a Costar half-area microtiter plate 25 μl human factor Xa (Enzyme Research Laboratories, Inc.; South Bend, Ind.) in TBS-PEG; 40 μl 10% (v/v) DMSO in TBS-PEG (uninhibited control) or various concentrations of the compound to be tested diluted in 10% (v/v) DMSO in TBS-PEG; and substrate S-2765 (N(α)-benzyloxycarbonyl-D-Arg-Gly-L-Arg-p-nitroanilide; Kabi Pharmacia, Inc.; Franklin, Ohio) in TBS-PEG.
The assay was performed by pre-incubating the compound of formulae I, Ib and Ic plus enzyme for 10 min. Then the assay was initiated by adding substrate to obtain a final volume of 100 μl. The initial velocity of chromogenic substrate hydrolysis was measured by the change in absorbance at 405 nm using a Bio-tek Instruments kinetic plate reader (Ceres UV900HDi) at 25° C. during the linear portion of the time course (usually 1.5 min after addition of substrate). The enzyme concentration was 0.5 nM and substrate concentration was 140 μM.
The inhibitory activity towards factor VIIa/tissue factor activity was determined using a chromogenic assay essentially as described previously (J. A. Ostrem et al., Biochemistry 37 (1998) 1053-1059 which was incorporated herein by reference). Kinetic assays were conducted at 25° C. in half-area microtiter plates (Costar Corp., Cambridge, Mass.) using a kinetic plate reader (Molecular Devices Spectramax 250). A typical assay consisted of 25 μl human factor VIIa and TF (5 nM and 10 nM, respective final concentration) combined with 40 μl of inhibitor dilutions in 10% DMSO/TBS-PEG buffer (50 mM Tris, 15 mM NaCl, 5 mM CaCl2, 0.05% PEG 8000, pH 8.15). Following a 15 minute preincubation period, the assay was initiated by the addition of 35 μl of the chromogenic substrate S-2288 (D-Ile-Pro-Arg-p-nitroanilide, Pharmacia Hepar Inc., 500 μM final concentration).

T1 sequence (P00742 235-488 limits assumed): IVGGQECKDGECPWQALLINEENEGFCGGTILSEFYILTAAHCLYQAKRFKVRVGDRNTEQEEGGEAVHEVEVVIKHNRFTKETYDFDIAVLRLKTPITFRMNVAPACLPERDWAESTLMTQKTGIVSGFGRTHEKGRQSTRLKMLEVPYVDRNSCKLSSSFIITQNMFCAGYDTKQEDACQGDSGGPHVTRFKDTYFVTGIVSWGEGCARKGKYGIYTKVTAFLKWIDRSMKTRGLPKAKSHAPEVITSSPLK
T1 sequence (P00742 41-179 partner limits assumed): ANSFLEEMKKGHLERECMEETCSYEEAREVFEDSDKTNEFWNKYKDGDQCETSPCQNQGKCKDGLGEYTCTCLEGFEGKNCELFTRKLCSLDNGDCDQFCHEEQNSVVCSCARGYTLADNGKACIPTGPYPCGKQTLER

Structure (SMILES) | Ki
CC(C)N1CCC(NC(=O)c2c(C#N)cnn2CC(=O)Nc2ccc(Cl)cc2)CC1 [Example 57, 2-[(4-Chloro-phenylcarbamoyl)-methyl]-4-cyano-2H-pyrazole-3-carboxylic acid (1-isopropyl-piperidin-4-yl)-amide] | 410 nM
CC(C)N1CCC(NC(=O)c2cc(-c3cccs3)nn2Cc2csc(-c3ccc(Cl)s3)n2)CC1 [Example 14, 2-[2-(5-Chloro-thiophen-2-yl)-thiazol-4-ylmethyl]-5-thiophen-2-yl-2H-pyrazole-3-carboxylic acid (1-isopropyl-piperidin-4-yl)-amide] | 46 nM
O=C(NCC1CCN(c2ccncc2)CC1)c1cc(-c2cccs2)nn1Cc1cc(-c2ccc(Cl)s2)on1 [Example 16, 2-[5-(5-Chloro-thiophen-2-yl)-isoxazol-3-ylmethyl]-5-thiophen-2-yl-2H-pyrazole-3-carboxylic acid (3,4,5,6-tetrahydro-2H-[1,4′]bipyridinyl-4-ylmethyl)-amide] | 165 nM
CC(C)N1CCC(NC(=O)c2cc(C(=O)NC[Si](C)(C)C)nn2Cc2cc(-c3ccc(Cl)s3)on2)CC1 [Example 80, 1-[5-(5-Chloro-thiophen-2-yl)-isoxazol-3-ylmethyl]-1H-pyrazole-3,5-dicarboxylic acid 5-[(1-isopropyl-piperidin-4-yl)-amide] 3-trimethylsilanylmethyl-amide] | 149 nM
CC(C)N1CCC(NC(=O)c2cc(C(=O)NC3CCC3)nn2Cc2cc(-c3ccc(Cl)s3)on2)CC1 [Example 46, 1-[5-(5-Chloro-thiophen-2-yl)-isoxazol-3-ylmethyl]-1H-pyrazole-3,5-dicarboxylic acid 3-cyclobutylamide 5-[(1-isopropyl-piperidin-4-yl)-amide]] | 106 nM
CCCc1nn(Cc2cc(-c3ccc(Cl)s3)on2)c(C(=O)NC2CCN(C(C)C)CC2)c1C#N [Example 10, 2-[5-(5-Chloro-thiophen-2-yl)-isoxazol-3-ylmethyl]-4-cyano-5-propyl-2H-pyrazole-3-carboxylic acid (1-isopropyl-piperidin-4-yl)-amide] | 41 nM
CC(C)N1CCC(NC(=O)c2cc(C(=O)N3CCC(O)C3)nn2Cc2cc(-c3ccc(Cl)s3)on2)CC1 (centres unmarked) [Example 36, 2-[5-(5-Chloro-thiophen-2-yl)-isoxazol-3-ylmethyl]-5-(3-hydroxy-pyrrolidine-1-carbonyl)-2H-pyrazole-3-carboxylic acid (1-isopropyl-piperidin-4-yl)-amide] | 122 nM
O=C(NC1CCN(c2ccncc2)CC1)c1cc(-c2cccs2)nn1Cc1cc(-c2ccc(Cl)s2)on1 [Example 18, 2-[5-(5-Chloro-thiophen-2-yl)-isoxazol-3-ylmethyl]-5-thiophen-2-yl-2H-pyrazole-3-carboxylic acid (3,4,5,6-tetrahydro-2H-[1,4′]bipyridinyl-4-yl)-amide] | 205 nM
CC(C)N1CCC(NC(=O)c2cc(C(=O)NC3=NCCO3)nn2Cc2cc(-c3ccc(Cl)s3)on2)CC1 [Example 68, 1-[5-(5-Chloro-thiophen-2-yl)-isoxazol-3-ylmethyl]-1H-pyrazole-3,5-dicarboxylic acid 3-[(4,5-dihydro-oxazol-2-yl)-amide] 5-[(1-isopropyl-piperidin-4-yl)-amide]] | 99 nM

The next lines start with the values.

Ki | Structure (SMILES)
104 nM | CC(C)N1CCC(NC(=O)c2cc(C(=O)N3CC(O)C3)nn2Cc2cc(-c3ccc(Cl)s3)on2)CC1 [Example 83, 2-[5-(5-Chloro-thiophen-2-yl)-isoxazol-3-ylmethyl]-5-(3-hydroxy-azetidine-1-carbonyl)-2H-pyrazole-3-carboxylic acid (1-isopropyl-piperidin-4-yl)-amide]
25 nM | COCCOCCOc1cc(C(=O)NC2CCN(C(C)C)CC2)n(CC(=O)Nc2ccc(Cl)cn2)n1 [Example 104, 2-[(5-Chloro-pyridin-2-ylcarbamoyl)-methyl]-5-[2-(2-methoxy-ethoxy)-ethoxy]-2H-pyrazole-3-carboxylic acid (1-isopropyl-piperidin-4-yl)-amide]
39 nM | CC(C)N1CCC(NC(=O)c2nn(Cc3cc(-c4ccc(Cl)s4)on3)c(-c3cccs3)c2C#N)CC1 [Example 13, 1-[5-(5-Chloro-thiophen-2-yl)-isoxazol-3-ylmethyl]-4-cyano-5-thiophen-2-yl-1H-pyrazole-3-carboxylic acid (1-isopropyl-piperidin-4-yl)-amide]
152 nM | COC[C@@H]1CCCN1C(=O)c1cc(C(=O)NC2CCN(C(C)C)CC2)n(Cc2cc(-c3ccc(Cl)s3)on2)n1 [Example 66, 2-[5-(5-Chloro-thiophen-2-yl)-isoxazol-3-ylmethyl]-5-(2S,2-methoxymethyl-pyrrolidine-1-carbonyl)-2H-pyrazole-3-carboxylic acid (1-isopropyl-piperidin-4-yl)-amide]
20 nM | CC(C)N1CCC(NC(=O)c2cc(C(=O)OCCO)nn2CC(=O)Nc2ccc(Cl)cn2)CC1 [Example 107, 1-[(5-Chloro-pyridin-2-ylcarbamoyl)-methyl]-5-(1-isopropyl-piperidin-4-ylcarbamoyl)-1H-pyrazole-3-carboxylic acid 2-hydroxy-ethyl ester]
16 nM | COCCOC(=O)c1cc(C(=O)NC2CCN(C(C)C)CC2)n(CC(=O)Nc2ccc(Cl)cn2)n1 [Example 106, 1-[(5-Chloro-pyridin-2-ylcarbamoyl)-methyl]-5-(1-isopropyl-piperidin-4-ylcarbamoyl)-1H-pyrazole-3-carboxylic acid 2-methoxy-ethyl ester]
155 nM | CC(C)N1CCC(NC(=O)c2cc(-c3n[nH]c(=O)o3)nn2Cc2cc(-c3ccc(Cl)s3)on2)CC1 [Example 29, 2-[5-(5-Chloro-thiophen-2-yl)-isoxazol-3-ylmethyl]-5-(5-oxo-4,5-dihydro-[1,3,4]oxadiazol-2-yl)-2H-pyrazole-3-carboxylic acid (1-isopropyl-piperidin-4-yl)-amide]
112 nM | Cc1cc(C(=O)NC2CCN(C(C)C)CC2)n(Cc2cc(-c3ccc(Cl)s3)on2)n1 [Example 3, 2-[5-(5-Chloro-thiophen-2-yl)-isoxazol-3-ylmethyl]-5-methyl-2H-pyrazole-3-carboxylic acid (1-isopropyl-piperidin-4-yl)-amide]
142 nM | CC(C)N1CCC(NC(=O)c2cc(C(=O)N3CCC3)n(Cc3cc(-c4ccc(Cl)s4)on3)n2)CC1 [Example 86, 5-(Azetidine-1-carbonyl)-1-[5-(5-chloro-thiophen-2-yl)-isoxazol-3-ylmethyl]-1H-pyrazole-3-carboxylic acid (1-isopropyl-piperidin-4-yl)-amide]
81 nM | CC(C)N1CCC(NC(=O)c2cc(C(=O)N3CCNC(=O)C3)nn2Cc2cc(-c3ccc(Cl)s3)on2)CC1 [Example 41, 2-[5-(5-Chloro-thiophen-2-yl)-isoxazol-3-ylmethyl]-5-(3-oxo-piperazine-1-carbonyl)-2H-pyrazole-3-carboxylic acid (1-isopropyl-piperidin-4-yl)-amide]
80 nM | CC(C)N1CCC(NC(=O)c2cc(C(=O)NC(C(=O)O)C(F)(F)F)nn2Cc2cc(-c3ccc(Cl)s3)on2)CC1 (centres unmarked) [Example 79, 2-{[1-[5-(5-Chloro-thiophen-2-yl)-isoxazol-3-ylmethyl]-5-(1-isopropyl-piperidin-4-ylcarbamoyl)-1H-pyrazole-3-carbonyl]-amino}-3,3,3-trifluoro-propionic acid]
